From the NIST ThermoML archive (doi:10.1021/je901020a)
Where “and” joins values, the source holds several entries; their conditions need not be identical. Equal entries are not always repeated. Numbers after ± are expanded uncertainties.

Columns and labels:
[1] = refractive index (Na D-line) (dimensionless); conditions: 101.33 kPa, Liquid, Standard Abbe refractometry
[2] = 101 kPa, Liquid; for speed of sound: Pulse-echo method

Compound	refractive index ([1]; 298.15 K)	refractive index ([1]; 313.15 K)	mass density ([2]; 298.15 K)	speed of sound ([2]; 298.15 K) [m/s]	mass density ([2]; 313.15 K)	speed of sound ([2]; 313.15 K)
Cc1ccc(C)cc1 [1,4-dimethylbenzene]	1.49312 ± 0.001	1.48444 ± 0.001	856.6 ± 0.5 kg/m3	1310 ± 2	843.5 ± 0.5 kg/m3	1248 ± 2 m/s
C1CCCCC1 [cyclohexane]	1.4236 ± 0.00064	1.41516 ± 0.00064	773.9 ± 0.5 kg/m3	1255 ± 2	759.6 ± 0.5 kg/m3 and 759.59 ± 0.5 kg/m3	1182 ± 2 m/s
C1CCCCCCC1 [cyclooctane]	1.45598 ± 0.00061	1.44877 ± 0.00061	831.5 ± 0.5 kg/m3	1391 ± 2	819.2 ± 0.5 kg/m3	1326 ± 2 m/s and 1325 ± 2 m/s
C1CCCC1 [cyclopentane]	1.40292 ± 0.001	1.39456 ± 0.001	740 ± 0.6 kg/m3	1204 ± 2	725 ± 0.7 kg/m3	1130 ± 2 m/s
CC1CCCCC1 [methylcyclohexane]	1.42062 ± 0.00064	1.41274 ± 0.00064 and 1.41274 ± 0.001	765 ± 0.6 kg/m3 and 765.1 ± 0.6 kg/m3	1215 ± 2	751.9 ± 0.6 kg/m3	1150 ± 2 m/s
